How the values were obtained:
[1] = system: SCCVII squamous cell carcinoma; experiment: Subcutaneous squamous cell carcinoma (SCCVII) tumor growth; format: in vivo, mouse; conditions: pmIL-12/PPC 25 μg intratumoral weekly x4, two injections
Experimental: The effect of local administration of pIL-12/PPC complexes on the growth of subcutaneously implanted squamous cell (SCCVII) carcinoma was examined. 4×10^5 squamous carcinoma cells in 100 μl were implanted sc on the right flank of female Female CH3 mice (6-9 weeks, 17-22 grams) The mIL-12 plasmid was complexed with PPC at a 11:1 N:P ratio and administered locally into the tumors at a DNA dose of 25 μg in an injection volume of 50 μl once every week for four weeks starting ˜11 days after tumor implantation. Treatment groups of 12 mice were used and tumor growth was monitored twice per week using caliper measurement.
For combination therapy both gene therapy and chemotherapy treatment were given as described above. Treatment groups of 12 mice were used and tumor growth was monitored twice per week using caliper measurement.

[2] = system: ID8 peritoneal disseminated ovarian tumors; experiment: pIL-12/PPC plus paclitaxel in peritoneal disseminated ovarian tumors; format: in vivo, mouse
Experimental: Intraperitoneal IL-12 gene therapy was combined with paclitaxel chemotherapy to enhance the therapeutic response to disseminated ovarian tumors in mice. The mice were injected intraperitoneally with 5×10^6 ID8 cells in a volume of 500 μl. The treatments were started when tumor burden (mouse weight) reached approximately 20 grams (˜21 days after injection of cells). The mice were injected intraperitoneally with 25 μg of pmIL-12 complexed with PPC at a 11:1 N:P ratio in a volume of 500 μl. The gene treatment was repeated after 7 days constituting a total of two injections (Day 1, 8) per the study. Paclitaxel (Taxol®) was administered only once (Day 0) by intravenous injection at a dose of 8 mg/kg dose in an injection volume of 250 μL. For combination therapy, both gene therapy and chemotherapy treatments were given as described above. Animals were periodically weighed to assess the effect of gene treatment on tumor burden. […] The inhibition of tumor burden by pmIL-12/PPC complexes was slightly higher than that of paclitaxel.

Renca tumors = conditions: cited from earlier work
CT26 tumors = conditions: cited from earlier work

O=P1(N(CCCl)CCCl)NCCCO1 (stereo not drawn) [cyclophosphamide]
tumor growth in combination study ([1]; cyclophosphamide 200 mg/kg iv): only a partial inhibition of tumor growth
animals that completely rejected the tumor (complete rejection rate) ([1]; cyclophosphamide iv): 10%

CC(=O)O[C@H]1C(=O)[C@@]2(C)[C@H]([C@H](OC(=O)c3ccccc3)[C@]3(O)C[C@H](OC(=O)[C@H](O)[C@@H](NC(=O)c4ccccc4)c4ccccc4)C(C)=C1C3(C)C)[C@]1(OC(C)=O)CO[C@@H]1C[C@@H]2O [paclitaxel]
peritoneal tumor burden ([2]; pmIL-12 25 μg ip day 1, 8, paclitaxel 8 mg/kg iv day 0): tumor reduction
survival ([2]; pmIL-12/PPC ip, paclitaxel 8 mg/kg iv): improved survival

IFN-α
tumor rejection (Renca tumors): 25%
rejection rate (CT26 tumors): 0%
